The subject of data set [1] is P. falciparum ART-resistant strain F32-ART5. Kind of data set: Standard in vitro chemo-sensitivity assay, F32-ART5. It is filed as cell-based. As to conditions: Plasmodium falciparum, F32, 48 h, read-out: Mean ± SEM EC50 values F32-ART5. Here is the method: (§1) The Plasmodium falciparum ART-resistant strain F32-ART5 and its tween ART-sensitive strain F32-TEM [33, 41] were cultivated at 37 °C with 5% CO2 in human red blood cells (EFS, French Blood Bank) diluted to 2% hematocrit in RPMI-1640 medium (Biowest, Nuaillé, France) supplemented with 5% human serum (EFS, French Blood Bank), as previously reported.
(§2) The chemosensitivity assay was carried out in 96-well culture plates on synchronized ring-stage parasites at 1% parasitemia obtained after D-sorbitol treatment. The antiplasmodial activities were evaluated using the SYBR Green I method. Parasites were exposed for 48 h to a range of concentrations of the different tested compounds. Each drug concentration was tested in triplicates. Parasite pellets were then washed in 1× PBS prior to lysing red blood cells at −20 °C overnight. Then, the plates were thawed and 100 µL of each well were transferred into a black 96-well plate. Next, 100 µL per well of SYBR Green I (Thermo Fisher) diluted at a final concentration of 2× in lysis buffer (20 mM Tris base pH 7.5, 5 mM EDTA, 0.008% w/v saponin, 0.08% w/v Triton X-100) were added and left to incubate for 1 h at room temperature prior to reading the plates on BioTek FLx800 Microplate Fluorescence Reader (λexcitation = 485 nm, λemission = 528 nm). Relative EC50 values were determined using GraphPad Prism software.

Data set [2] concerns P. falciparum ART-sensitive strain F32-TEM. Kind of data set: Standard in vitro chemo-sensitivity assay, F32-TEM. In kind it is cell-based. As to conditions: Plasmodium falciparum, F32, 48 h, read-out: Mean ± SEM EC50 values F32-TEM. How it is done:
as §1, §2

The subject of data set [3] is F32-ART5 and F32-TEM parasites. Kind of data set: Recrudescence assay. In kind it is cell-based, Plasmodium falciparum. As to conditions: 48 h exposure; 2.5 µM 3i or 18 µM ART; log-rank Mantel-Cox test. How it is done:
Recrudescence assay was performed to evaluate the ability of the F32-ART5 parasites to survive drug exposure comparatively to the F32-TEM parasites. D-sorbitol synchronized ring-stages at 3% parasitemia (2% hematocrit) were exposed to drug for 48 h. After drug exposure, parasite cultures were washed with RPMI-1640 medium and replaced in normal drug-free culture conditions. The time to parasite recrudescence was determined as the time required to reach the 3% initial parasitemia. […] Each experiment was performed for F32-ART5 and F32-TEM and cultivated in parallel in the same conditions to generate paired results. This was carried out at least three times independently. A statistical analysis (log-rank Mantel–Cox test) was carried out on data thanks to a Kaplan–Meier survival analysis (using GraphPad Prism software) considering censored data.
Figure S48. 13C NMR spectrum of 2i in CDCl3, on a Bruker ARX 101 spectrometer
2. […]
3. Studying the effect of (3i) on the liver stage development of P. falciparum Cryopreserved primary human hepatocytes were seeded in 96 well plates with a pre-determined seeding dose that gave a single dense layer of attached hepatocytes. […]
The culture medium with or without drugs was refreshed every 48 hours and two independent plates were studied. […] Plates were subjected to quantification using an automated plate scanner. […]

The test system of data set [4] is HepG2. The following applies: Figure 2; cited from earlier work.
For data set [5], the system named is Pf3D7 (3D7 chloroquine-sensitive strain). As to conditions: Figure 2; cited from earlier work.
Data set [6] concerns PfFCR-3 (FCR-3 multidrug-resistant strain). More on the design: method as in PMID 28291694. The following applies: Figure 2; cited from earlier work.

Each structure is given as a SMILES string.

Usually EC50 stands for the midpoint of the concentration-response curve. For `C[C@@H]1CC[C@H]2[C@@H](C)C(=O)O[C@@H]3O[C@@]4(C)CC[C@@H]1[C@]32OO4` [Artemisinin, reference compound], the EC50 in data set [1] came to 11 ± 3 nM; in data set [2] it was 19 ± 3 nM. Moreover, the “Recrudescence of F32-ART5 compared with F32-TEM after drug exposure” value in data set [3] is reported as “significant faster”.

Consider `Cc1c(/C=N/Nc2ccnc3cc(Cl)ccc23)[n+]([O-])c2cc(Cl)ccc2[n+]1[O-]` [QdNO 19], for which the CC50 in data set [4] was > 241000 nM. For the same compound, the EC50 in data set [5] was 240 nM; in data set [6], 2800 nM.

These data come from publication PMC8400257, “2-Phenoxy-3-Trichloromethylquinoxalines Are Antiplasmodial Derivatives with Activity against the Apicoplast of Plasmodium falciparum” (Pharmaceuticals, 2021).
